Data set [1] relates to acute myelocytic leukemia (AML) HL-60 cells. The experiment in a line: ADCP: phagocytosis of HL-60 cells by HPMMs, combination with azacitidine. The settings on record: HPMMs effector, HL-60 target cells treated with azacitidine 3 μM or 1 μM for 24 h; antibodies 10 μg/mL and 1 μg/mL; FIG. 2. It counts as cell-based, human. From the text: Materials: Azacitidine (purchased from Baxter Oncology GmbH); Hu5F9-G4 (supplied by Akeso Biopharma, Inc.); Raji cells (Chinese Academy of Sciences Shanghai Branch); HL-60 cells (ATCC); RPMI 1640 (Gibco, Cat. No: 22400-105); pancreatin (0.25% Typsin-EDTA (1×)) (Gibco, Cat. No: 25200072); fetal bovine serum (FBS; Excell bio, Cat. No: FSP500); fluorescent dye […] diacetatesuccinimidyl ester (CFSE; Biolegend, Cat. No: 423801); recombinant human macrophage colony-stimulating factor (human M-CSF; PeproTech, Cat. No: 300-25); APC anti-human CD11c antibody (Biolegend, Cat. No: 301614); isotype control (human IgG4; supplied by Akeso Biopharma, Inc.); rituximab (Roche); BSA (Sigma, Cat. No: V900933-1KG); Ficoll paque plus (GE, Cat. No: 17-1440-02). Human peripheral monocyte-derived macrophages (HPMMs) were prepared by inducing PBMCs. Frozen PBMCs were conventionally thawed and incubated in an incubator overnight. […]
Procedures: HL-60 cells were conventionally collected and plated in a 6-well plate at 4×10^5 cells/2 mL of 1640 complete medium per well. […] The next day, the treated and blank HL-60 cells were collected, centrifuged at 170×g for 5 min, resuspended and counted. Then the cells were analyzed for viability and washed once with PBS. […]

Data set [2] concerns hematological malignancies and solid tumors. The following applies: Chao M P et al., 2016; cited from earlier work.
The test system of data set [3] is human Burkitt's lymphoma Raji-PDL1 cells. In words: Immune cell activation: PBMCs co-cultured with Raji-PDL1 cells, cytokine ELISA. It counts as cell-based. The settings on record: SEB-activated PBMCs + MMC-treated Raji-PDL1 cells, 3 days; FIG. 3. (In general: In an ELISA, binding on a coated surface is turned into a signal by an enzyme label.)
Data set [4] has as its system CT26-hCD47 cells (mouse colon cancer cells). The experiment in a line: CT26-hCD47 tumor model in BALB/c-hPD1/hSIRPα mice, tumor volume. It counts as in vivo. The following applies: 6F7H1L1(hG4) 5 mg/kg, cadonilimab 0.5 mg/kg, intraperitoneally twice per week for 4 weeks, 7 doses; vs isotype control hIgG4; FIG. 9. From the text: (§1) In order to determine the tumor inhibitory activity in vivo of 6F7H1L1(hG4) antibody in combination with anti-PD-1/anti-CTLA-4 bispecific antibody cadonilimab, female BALB/c-hPD1I/hSIRPα mice aged 6.43-8.43 weeks (purchased from GemPharmatech Co., Ltd.) were grafted subcutaneously with CT26-hCD47 cells (mouse colon cancer cells, purchased from GemPharmatech Co., Ltd.). When the mean tumor volume reached 80-120 mm^3, the mice were randomized into 4 groups of 6 by tumor volume. The day of grouping was defined as D0, and dosing was started on the day of grouping D0. The regimen of the combination therapy group is as follows: the drugs were formulated separately and administered sequentially (no certain order or time interval was required, and one treatment should be given after the completed administration of the other). After the administration, the length and width of tumors in each group were measured, and the tumor volume was calculated. The data were subjected to an independent sample T-test, SPSS 17.0 *P<0.05, **P<0.01.

Data set [5] is described as follows: CT26-hCD47 tumor model, tolerability and body weight. It counts as in vivo. The following applies: 6F7H1L1(hG4) 5 mg/kg, cadonilimab 0.5 mg/kg, i.p.; FIG. 10.
Description: as §1

Another data set concerns Raji cells. The experiment in a line: ADCP: phagocytosis of Raji cells by HPMMs, combination with obinutuzumab. The following applies: HPMMs effector, Raji target cells, 37° C. 2 h; FIG. 8. It counts as cell-based, human. Here is the method: PBMCs (prepared by Akeso Biopharma, Inc., Lot No: 20201126-G) were thawed and incubated with 1640 complete medium+10% FBS (Excell bio, Cat. No: FSP500, Lot No: 11I025) overnight. The next day, the medium was changed to 1640 complete medium+2% FBS, and the cells were incubated with the medium for 2 h. The supernatant was removed, and the cells were washed twice with PBS and incubated in an incubator (90% 1640+10% FBS+M-CSF-100 ng/mL) to induce […] (HPMMs). The medium was exchanged and the treatment was given on days 3 and 5. The experiment was performed on day 7 of induction.
Raji cells (purchased from ATCC) were conventionally collected and washed once with PBS. CFSE was diluted to 2.5 μM with PBS. The cells were resuspended in a proper amount of the diluted CFSE to a staining density of 1×10^7 cells/mL and incubated in an incubator for 20 min. 6 mL of 1640 complete medium (containing 10% FBS) was added to stop staining. The cells were centrifuged at 170×g for 5 min, and the supernatant was discarded. 1 mL of 1640 complete medium was added, and the cells were incubated in an incubator for 10 min with the cell density adjusted to 3×10^6 cells/mL. […] 200 μL of 1% PBSA was added to each tube for resuspension, and the cells were transferred to a flow cytometry tube and detected.

As to “Hu5F9-G4: anti-CD47 monoclonal antibody drug, positive control; heavy chain SEQ ID NO: 85, light chain SEQ ID NO: 86”, in data set [1], the “phagocytic index (ADCP)” value was “significantly higher than those of the blank control and the isotype control (human IgG4)”. Moreover, in data set [2], the “inhibition of growth and metastasis of tumors in preclinical studies” value is “effectively inhibits the growth and metastasis of hematological malignancies and solid tumors”.
Take “cadonilimab: anti-PD-1/CTLA-4 bispecific antibody; heavy chain SEQ ID NO: 78, light chain SEQ ID NO: 80 [reference compound]”: the “secretion of IFN-γ in PBMCs” value in data set [3] was “can significantly stimulate the secretion of IFN-γ”. The “inhibition of tumor growth (tumor volume)” value in data set [4] is given as “can effectively inhibit the growth of tumors in mice”. Moreover, in data set [5], the “tolerability in tumor-bearing mice” value was “well tolerated”.
For the substance “obinutuzumab: anti-human CD20 antibody [reference compound]”, the “phagocytic index (ADCP)” value with Raji cells is “significantly higher than those of the blank control and the isotype controls (human IgG4 and human IgG1)”.

The values are drawn from patent publication US20240043531A1, “ANTI-CD47 MONOCLONAL ANTIBODY AND USE THEREOF” (Akeso Biopharma, Inc., priority 2021, published 2024).
